According to US8921559B2, “4-substituted-cyclohexylamino-4-piperidinyl-acetamide antagonists of CCR2” (Janssen Pharmaceutica NV, priority 2010, dated 2014):
Counter-ions that a name gives are not always drawn.

Target: CCR2 (Homo sapiens (Human), UniProt P41597)
Assay: MCP-1 Receptor Binding Assay in THP-1 Cells
Conditions: 0.5 nM 125I labeled MCP-1, 2 hours at 30° C., average of the two most similar values where more than one IC50, read-out: Inhibition of MCP-1 Binding IC50 CCR2 Binding
Procedure: Compounds of the invention were subjected to various representative biological tests. […] MCP-1 Receptor Binding Assay in THP-1 Cells Human monocytic cell line THP-1 cells were obtained from American Type Culture Collection (Manassas, Va., USA). The THP-1 cells were grown in RPMI-1640 (RPMI: Roswell Park Memorial Institute Medium-cell culture growth media) supplemented with 10% fetal bovine serum in a humidified 5% CO2 atmosphere at 37° C. The cell density was maintained between […].
THP-1 (cells were incubated with 0.5 nM ^125I labeled MCP-1 (Perkin-Elmer Life Sciences, Inc. Boston, Mass.) in the presence of varying concentrations of either unlabeled MCP-1 (R & D Systems, Minneapolis, Minn.) or test compound for 2 hours at 30° C. in a 96 well plate. Cells were then harvested onto a filter plate, dried, and 20 μL of Microscint 20 was added to each well. Plates were counted in a TopCount NXT, Microplate Scintillation & Luminescence Counter (Perkin-Elmer Life Sciences, Inc. Boston, Mass.). Blank values (buffer only) were subtracted from all values and drug treated values were compared to vehicle treated values. 1 μM cold MCP-1 was used for nonspecific binding.

CCR2, sequence (P41597 other isoform, or with tags, fused parts or gaps isoform P41597-2): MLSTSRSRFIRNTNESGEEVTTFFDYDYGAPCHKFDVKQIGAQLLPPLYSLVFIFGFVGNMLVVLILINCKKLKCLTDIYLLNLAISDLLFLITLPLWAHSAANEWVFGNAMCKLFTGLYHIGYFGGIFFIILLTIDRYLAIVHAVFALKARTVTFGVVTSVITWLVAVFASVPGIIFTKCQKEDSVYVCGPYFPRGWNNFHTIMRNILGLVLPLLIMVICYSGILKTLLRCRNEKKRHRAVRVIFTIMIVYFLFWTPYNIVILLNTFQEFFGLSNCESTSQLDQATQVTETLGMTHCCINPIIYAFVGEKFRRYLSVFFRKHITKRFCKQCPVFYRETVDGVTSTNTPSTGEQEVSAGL

Row | SMILES | IC50 [nM]
1 | O=C(O)C(N[C@H]1CC[C@H](c2c[nH]c3ccccc32)CC1)C1CCN(C(=O)Nc2ccc(Cl)c(Cl)c2)CC1 (stereo partly drawn) [Example 27, 2-[4-(1H-Indol-3-yl)-trans-cyclohexylamino]-2-[N-(3,4-dichlorophenyl)-piperidine-1-carboxamid-4-yl]-acetic acid hydrochloride] | 230
2 | NC(=O)C(NC1CCC(c2c[nH]c3ccccc23)CC1)C1CCN(C(=O)/C=C/c2ccc(C(F)(F)F)cc2)CC1 (stereo not drawn) [Example 13, 2-[4-(1H-Indol-3-yl)-cyclohexylamino]-2-[1-(trans-4-{trifluoromethyl}-cinnamoyl)piperidin-4-yl]-acetamide] | 136
3 | COC(=O)C(NC1CCC(c2c[nH]c3ccccc23)CC1)C1CCN(C(=O)/C=C/c2cc(F)c(F)c(F)c2)CC1 (stereo not shown) [Example 49b] | 750
4 | CSc1cccc(NC(=O)N2CCC(C(NC3CCC(c4c[nH]c5ccccc45)CC3)C(N)=O)CC2)c1 (stereo not shown) [Example 31, 2-[4-(1H-Indol-3-yl)-cyclohexylamino]-2-[N-(3-{methysulfanyl}phenyl)-piperidine-1-carboxamid-4-yl]-acetamide] | 710
5 | NC(=O)C(NC1CCC(c2c[nH]c3ccncc23)CC1)C1CCN(C(=O)/C=C/c2ccc(F)cc2)CC1 (single isomer, unassigned) [Example 47a, 2-[4-(1H-pyrrolo[3,2-c]pyridin-3-yl)cyclohexyl]amino-2-[1-(trans-4-fluorocinnamoyl)-piperidin-4-yl]-acetamide] | 405
6 | NC(=O)C(NC1CCC(c2c[nH]c3ccccc23)CC1)C1CCN(C(=O)/C=C/c2ccc3c(c2)CCC3)CC1 (stereo not drawn) [Example 12, 2-[4-(1H-Indol-3-yl)-cyclohexylamino]-2-[1-(trans-3-indan-5-ylprop-2-enoyl)piperidin-4-yl]-acetamide] | 120
7 | COC(=O)C(N[C@H]1CC[C@H](c2c[nH]c3ccccc32)CC1)C1CCN(C(=O)/C=C/c2cc(F)cc(F)c2)CC1 (stereo partly drawn) [Example 24, Methyl 2-[4-(1H-indol-3-yl)-trans-cyclohexylamino]-2-[1-(trans-3,5-difluorocinnamoyl)piperidin-4-yl]-acetate] | 390
8 | NC(=O)C(NC1CCC(c2c[nH]c3ccccc23)CC1)C1CCN(C(=O)/C=C/c2ccc3c(c2)OC(F)(F)O3)CC1 (stereo not drawn) [Example 17, 2-[4-(1H-Indol-3-yl)-cyclohexylamino]-2-[1-(trans-3-(2,2-difluoro-1,3-benzodioxol-5-yl)prop-2-enoyl)piperidin-4-yl]-acetamide] | 177
9 | NC(=O)C(NC1CCC(c2c[nH]c3ccncc23)CC1)C1CCN(C(=O)/C=C/c2ccc(F)cc2)CC1 (single isomer, unassigned) [Example 47b, 2-[4-(1H-pyrrolo[3,2-c]pyridin-3-yl)cyclohexyl]amino-2-[1-(trans-4-fluorocinnamoyl)-piperidin-4-yl]-acetamide] | 641
10 | NC(=O)C(NC1CCC(c2c[nH]c3ccccc23)CC1)C1CCN(C(=O)/C=C/c2cccc(C(F)(F)F)c2)CC1 (stereo not drawn) [Example 10, 2-[4-(1H-Indol-3-yl)-cyclohexylamino]-2-[1-(trans-3-{trifluoromethyl}-cinnamoyl)piperidin-4-yl]-acetamide] | 75
11 | CCOC(=O)c1ccc(NC(=O)N2CCC(C(NC3CCC(c4c[nH]c5ccccc45)CC3)C(N)=O)CC2)cc1 (stereo not shown) [Example 22, 2-[4-(1H-Indol-3-yl)-cyclohexylamino]-2-[N-(4-{ethoxycarbonyl}-phenyl)piperidine-1-carboxamid-4-yl]-acetamide] | 553
12 | NC(=O)C(N[C@H]1CC[C@H](c2c[nH]c3cccnc32)CC1)C1CCN(C(=O)/C=C/c2ccccc2)CC1 (stereo partly drawn) [Example 43, R,S-2-[trans-4-(1H-pyrrolo[3,2-b]pyridin-3-yl)cyclohexyl]amino-2-[1-(trans-cinnamoyl)-piperidin-4-yl]-acetamide] | 122
13 | NC(=O)C(NC1CCC(c2c[nH]c3ccccc23)CC1)C1CCN(C(=O)Nc2ccc(F)c(F)c2)CC1 (stereo not shown) [Example 32, 2-[4-(1H-Indol-3-yl)-cyclohexylamino]-2-[N-(3,4-difluorophenyl)piperidine-1-carboxamid-4-yl]-acetamide] | 807
14 | NC(=O)C(NC1CCC(c2c[nH]c3ccccc23)CC1)C1CCN(C(=O)/C=C/c2ccccc2)CC1 (stereo not drawn) [Example 18, 2-[4-(1H-Indol-3-yl)-cyclohexylamino]-2-[1-(trans-cinnamoyl)piperidin-4-yl]-acetamide] | 190
15 | CN(C)C(=O)C(NC1CCC(c2c[nH]c3ccccc23)CC1)C1CCN(C(=O)/C=C/c2cc(F)c(F)c(F)c2)CC1 (stereo not drawn) [Example 54, N,N-Dimethyl-2-{[4-(1H-Indol-3-yl)-cyclohexylamino]-2-[1-(trans-3,4,5-trifluorocinnamoyl)-piperidin-4-yl]}-acetamide] | 981
16 | NC(=O)C(NC1CCC(c2c[nH]c3ccccc23)CC1)C1CCN(C(=O)/C=C/c2ccc3c(c2)OCCO3)CC1 (stereo not drawn) [Example 23, 2-[4-(1H-Indol-3-yl)-cyclohexylamino]-2-[1-(trans-3-[2,3-dihydro-1,4-benzodioxin-7-yl]prop-2-enoyl)piperidin-4-yl]-acetamide] | 602
17 | NC(=O)C(NC1CCC(c2c[nH]c3ccccc23)CC1)C1CCN(C(=O)Nc2cccc(C(F)(F)F)c2)CC1 (stereo not shown) [Example 16, 2-[4-(1H-Indol-3-yl)-cyclohexylamino]-2-[N-(3-{trifluoromethyl}-phenyl)piperidine-1-carboxamid-4-yl]-acetamide] | 150
18 | NC(=O)C(NC1CCC(c2c[nH]c3ccccc23)CC1)C1CCN(C(=O)/C=C/c2ccc(F)cc2)CC1 (stereo not drawn) [Example 6, 2-[4-(1H-Indol-3-yl)-cyclohexylamino]-2-[1-(trans-4-fluorocinnamoyl)-piperidin-4-yl]-acetamide] | 19
19 | NC(=O)C(NC1CCC(c2c[nH]c3ccccc23)CC1)C1CCN(C(=O)/C=C/c2ccc3c(c2)CCCO3)CC1 (stereo not shown) [Example 33, 2-[4-(1H-indol-3-yl)-cyclohexylamino]-2-{1-[(2E)-3-(3,4-dihydro-2H-chromen-6-yl)prop-2-enoyl]piperidin-4-yl}acetamide] | 960
20 | NC(=O)C(NC1CCC(c2c[nH]c3ccccc23)CC1)C1CCN(C(=O)/C=C/c2ccc(Cl)cc2)CC1 (stereo not drawn) [Example 14, 2-[4-(1H-Indol-3-yl)-cyclohexylamino]-2-[1-(trans-4-chloro-cinnamoyl)piperidin-4-yl]-acetamide] | 130
21 | O=C(NO)C(NC1CCC(c2c[nH]c3ccccc23)CC1)C1CCN(C(=O)/C=C/c2cc(F)c(F)c(F)c2)CC1 (stereo not drawn) [Example 51, N-Hydroxy-2-{[4-(1H-Indol-3-yl)-cyclohexylamino]-2-[1-(trans-3,4,5-trifluorocinnamoyl)-piperidin-4-yl]}-acetamide] | 665
22 | NC(=O)C(NC1CCC(c2c[nH]c3ccccc23)CC1)C1CCN(C(=O)/C=C/c2cccc(F)c2)CC1 (stereo not drawn) [Example 7, 2-[4-(1H-Indol-3-yl)-cyclohexylamino]-2-[1-(trans-3-fluorocinnamoyl)-piperidin-4-yl]-acetamide] | 23
